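Protocol summary: plate cells (96-well), add compound at 5 concentrations, incubate 48 h, interpolate endpoints linearly. TGI: concentration producing complete growth inhibition.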
tested on: M19-MEL melanoma; assay: NCI-60 cell line screen, 48 h

Point of comparison: `N#C/C(=C/c1cccc2ccccc12)C(=O)c1ccccc1`, TGI 86.6 µM. Against it:
- CCc1n[nH]c(=S)n1/N=C/c1ccc(-c2ccc([N+](=O)[O-])cc2)o1 — higher, > 100 µM
- CCCCCCCCCCCCCCCC(=O)Nc1ccn(C2OC(CO)C(O)C2O)c(=O)n1 (configuration not stated) — higher, > 100 µM

tested on: OVCAR-5 ovarian; assay: NCI-60 cell line screen, 48 h

Point of comparison: `CN(C)C(=S)NC(=S)Nc1ccc2ccccc2c1`, TGI 60.1 µM. Against it:
- N#C/C(=C/c1cccc2ccccc12)C(=O)c1ccccc1 — within 1.5-fold, 50.1 µM
- CCc1n[nH]c(=S)n1/N=C/c1ccc(-c2ccc([N+](=O)[O-])cc2)o1 — higher, > 100 µM
- CCCCCCCCCCCCCCCC(=O)Nc1ccn(C2OC(CO)C(O)C2O)c(=O)n1 (configuration not stated) — higher, > 100 µM

tested on: COLO 205 colon; assay: NCI-60 cell line screen, 48 h

Point of comparison: `CN(C)C(=S)NC(=S)Nc1ccc2ccccc2c1`, TGI 39 µM. Against it:
- CCc1n[nH]c(=S)n1/N=C/c1ccc(-c2ccc([N+](=O)[O-])cc2)o1 — higher, > 100 µM
- CCCCCCCCCCCCCCCC(=O)Nc1ccn(C2OC(CO)C(O)C2O)c(=O)n1 (configuration not stated) — higher, > 100 µM

tested on: DMS 273 small cell lung; assay: NCI-60 cell line screen, 48 h

Point of comparison: `CN(C)C(=S)NC(=S)Nc1ccc2ccccc2c1`, TGI 14.1 µM. Against it:
- CCc1n[nH]c(=S)n1/N=C/c1ccc(-c2ccc([N+](=O)[O-])cc2)o1 — higher, > 100 µM
- CCCCCCCCCCCCCCCC(=O)Nc1ccn(C2OC(CO)C(O)C2O)c(=O)n1 (configuration not stated) — higher, > 100 µM

tested on: UACC-62 melanoma; assay: NCI-60 cell line screen, 48 h

Point of comparison: `N#C/C(=C/c1cccc2ccccc12)C(=O)c1ccccc1`, TGI 38.4 µM. Against it:
- CCc1n[nH]c(=S)n1/N=C/c1ccc(-c2ccc([N+](=O)[O-])cc2)o1 — higher, > 100 µM
- CN(C)C(=S)NC(=S)Nc1ccc2ccccc2c1 — within 1.5-fold, 26.9 µM
- CCCCCCCCCCCCCCCC(=O)Nc1ccn(C2OC(CO)C(O)C2O)c(=O)n1 (configuration not stated) — higher, > 100 µM

tested on: SN12C renal; assay: NCI-60 cell line screen, 48 h

Point of comparison: `N#C/C(=C/c1cccc2ccccc12)C(=O)c1ccccc1`, TGI 85.6 µM. Against it:
- CCc1n[nH]c(=S)n1/N=C/c1ccc(-c2ccc([N+](=O)[O-])cc2)o1 — higher, > 100 µM
- CN(C)C(=S)NC(=S)Nc1ccc2ccccc2c1 — 2.7-fold lower, 31.9 µM
- CCCCCCCCCCCCCCCC(=O)Nc1ccn(C2OC(CO)C(O)C2O)c(=O)n1 (configuration not stated) — higher, > 100 µM

tested on: OVCAR-3 ovarian; assay: NCI-60 cell line screen, 48 h

Point of comparison: `CN(C)C(=S)NC(=S)Nc1ccc2ccccc2c1`, TGI 57.8 µM. Against it:
- N#C/C(=C/c1cccc2ccccc12)C(=O)c1ccccc1 — higher, > 100 µM
- CCc1n[nH]c(=S)n1/N=C/c1ccc(-c2ccc([N+](=O)[O-])cc2)o1 — higher, > 100 µM
- CCCCCCCCCCCCCCCC(=O)Nc1ccn(C2OC(CO)C(O)C2O)c(=O)n1 (configuration not stated) — higher, > 100 µM

tested on: A498 renal; assay: NCI-60 cell line screen, 48 h

Point of comparison: `N#C/C(=C/c1cccc2ccccc12)C(=O)c1ccccc1`, TGI 55.3 µM. Against it:
- CN(C)C(=S)NC(=S)Nc1ccc2ccccc2c1 — within 1.5-fold, 48.3 µM
- CCCCCCCCCCCCCCCC(=O)Nc1ccn(C2OC(CO)C(O)C2O)c(=O)n1 (configuration not stated) — higher, > 100 µM

tested on: MOLT-4 leukemia; assay: NCI-60 cell line screen, 48 h

Point of comparison: `N#C/C(=C/c1cccc2ccccc12)C(=O)c1ccccc1`, TGI 38.2 µM. Against it:
- CCc1n[nH]c(=S)n1/N=C/c1ccc(-c2ccc([N+](=O)[O-])cc2)o1 — higher, > 100 µM
- CN(C)C(=S)NC(=S)Nc1ccc2ccccc2c1 — within 1.5-fold, 34.4 µM
- CCCCCCCCCCCCCCCC(=O)Nc1ccn(C2OC(CO)C(O)C2O)c(=O)n1 (configuration not stated) — 2.2-fold lower, 17.3 µM

tested on: DLD-1 colon; assay: NCI-60 cell line screen, 48 h

`CCc1n[nH]c(=S)n1/N=C/c1ccc(-c2ccc([N+](=O)[O-])cc2)o1` and `CCCCCCCCCCCCCCCC(=O)Nc1ccn(C2OC(CO)C(O)C2O)c(=O)n1` (configuration not stated) cannot be ordered by TGI: over 100 µM for the first, over 100 µM for the second.

tested on: SF-539 CNS; assay: NCI-60 cell line screen, 48 h

Point of comparison: `N#C/C(=C/c1cccc2ccccc12)C(=O)c1ccccc1`, TGI 34.9 µM. Against it:
- CCc1n[nH]c(=S)n1/N=C/c1ccc(-c2ccc([N+](=O)[O-])cc2)o1 — higher, > 100 µM
- CN(C)C(=S)NC(=S)Nc1ccc2ccccc2c1 — within 1.5-fold, 31.6 µM
- CCCCCCCCCCCCCCCC(=O)Nc1ccn(C2OC(CO)C(O)C2O)c(=O)n1 (configuration not stated) — higher, > 100 µM

tested on: MDA-N; assay: NCI-60 cell line screen, 48 h

Point of comparison: `CN(C)C(=S)NC(=S)Nc1ccc2ccccc2c1`, TGI 42.1 µM. Against it:
- CCCCCCCCCCCCCCCC(=O)Nc1ccn(C2OC(CO)C(O)C2O)c(=O)n1 (configuration not stated) — higher, > 100 µM

tested on: HL-60(TB) leukemia; assay: NCI-60 cell line screen, 48 h

Point of comparison: `CN(C)C(=S)NC(=S)Nc1ccc2ccccc2c1`, TGI 51.7 µM. Against it:
- N#C/C(=C/c1cccc2ccccc12)C(=O)c1ccccc1 — within 1.5-fold, 46.9 µM
- CCc1n[nH]c(=S)n1/N=C/c1ccc(-c2ccc([N+](=O)[O-])cc2)o1 — higher, > 100 µM
- CCCCCCCCCCCCCCCC(=O)Nc1ccn(C2OC(CO)C(O)C2O)c(=O)n1 (configuration not stated) — within 1.5-fold, 43.3 µM

tested on: A549 NSCLC; assay: NCI-60 cell line screen, 48 h

`N#C/C(=C/c1cccc2ccccc12)C(=O)c1ccccc1` and `CN(C)C(=S)NC(=S)Nc1ccc2ccccc2c1` cannot be ordered by TGI: over 10 µM for the first, over 31.5 µM for the second.

`CCc1n[nH]c(=S)n1/N=C/c1ccc(-c2ccc([N+](=O)[O-])cc2)o1` and `CCCCCCCCCCCCCCCC(=O)Nc1ccn(C2OC(CO)C(O)C2O)c(=O)n1` (configuration not stated) cannot be ordered by TGI: over 100 µM for the first, over 100 µM for the second.

tested on: HCT-116 colon; assay: NCI-60 cell line screen, 48 h

Point of comparison: `CN(C)C(=S)NC(=S)Nc1ccc2ccccc2c1`, TGI 27 µM. Against it:
- N#C/C(=C/c1cccc2ccccc12)C(=O)c1ccccc1 — within 1.5-fold, 34.4 µM
- CCc1n[nH]c(=S)n1/N=C/c1ccc(-c2ccc([N+](=O)[O-])cc2)o1 — higher, > 100 µM
- CCCCCCCCCCCCCCCC(=O)Nc1ccn(C2OC(CO)C(O)C2O)c(=O)n1 (configuration not stated) — higher, > 100 µM

tested on: K-562 leukemia; assay: NCI-60 cell line screen, 48 h

Point of comparison: `CN(C)C(=S)NC(=S)Nc1ccc2ccccc2c1`, TGI 23.3 µM. Against it:
- N#C/C(=C/c1cccc2ccccc12)C(=O)c1ccccc1 — not separable, > 10 µM
- CCc1n[nH]c(=S)n1/N=C/c1ccc(-c2ccc([N+](=O)[O-])cc2)o1 — higher, > 100 µM
- CCCCCCCCCCCCCCCC(=O)Nc1ccn(C2OC(CO)C(O)C2O)c(=O)n1 (configuration not stated) — higher, > 100 µM

tested on: RPMI-8226 leukemia; assay: NCI-60 cell line screen, 48 h

For `N#C/C(=C/c1cccc2ccccc12)C(=O)c1ccccc1`, the TGI was 69.6 µM.
